Several values for one entry are separate records, joined by “and”; a condition that tells them apart may be missing. Equal entries are not always repeated.

Format in all cases: cell-based
The test system of data set [1] is primary human chondrocytes. Put plainly: SA-β-Gal levels by FDG flow cytometry in primary chondrocytes exposed to etoposide and OSM. The note with it: for SA-β-Gal level (Mean ± SEM): Eto-20 μM + OSM = 1; for effect on SA-β-Gal levels, in words: Eto + OSM, AP 2.3 and 10 μg/ml, PA 7.7 and 10 μg/ml individually (FIG. 7b). A general note: In flow cytometry, cells or beads pass a laser one at a time.
From the text: Chondrocytes from human OA hip cartilage, were isolated as described in (Maneiro E, Martin M A, de Andres M C, López-Armada M J, Fernandez-Sueiro J L, del Hoyo P, et al. Mitochondrial respiratory activity is altered in osteoarthritic human articular chondrocytes. Arthritis and rheumatism. 2003; 48 (3): 700-8)) from 18 patients from total hip arthroplasty (5 male and 13 female patients with a mean±SD age of 86±7.17, 79.71±13.56 years respectively)
Human articular chondrocytes and T/C28a2 cell line, were equilibrated overnight in Dulbecco's Modified Eagle Medium (DMEM) (Gibco, Grand Island, NY, USA) supplemented with 10% fetal bovine serum (FBS), penicillin (100 U/ml) and streptomycin (100 μg/ml) (Gibco) in a humidified 5% CO2 atmosphere at 37° C.
(§1) Cells were plated at a density of 5×10^4 cells/well in Corning® CellBIND® multiwell 96 plates (MW 96) (Corning, NY, USA) or 1.8×10^5 cells/well in MW 12 plates (Corning, NY, USA) for analysis. Cells were left to equilibrate overnight in DMEM at 5% or 2% of FBS in 5% CO2 at 37° C.
(§2) The effect of APPA on number of senescent cells was therefore evaluated by the quantification of β-galactosidase activity using flow cytometry. β-galactosidase activity was detected using fluorescein di-β-D-galactopyranoside (FDG; Thermo Fisher, Waltham, MA, USA) by flow cytometry. Non-fluorescent FDG is sequentially hydrolysed by β-galactosidase, first to fluorescein monogalactoside and then to highly fluorescent fluorescein. Enzyme-mediated hydrolysis of FDG can be followed by the increase in fluorescence.
These conditions were evaluated with and without 10 μg/ml APPA for 24 h. Fluorescein di-β-D-galactopyranoside (10 µM) was then added to the pretreatment medium. At the end of incubation, cultures were washed with PBS, resuspended by trypsinization and analysed immediately using a FACScalibour flow cytometer (Becton Dickinson). Data were acquired and analysed with Cellquest software (Becton Dickinson). Each fluorescein signal was measured on an FL1 detector and β-galactosidase activity was estimated using the median fluorescence intensity (arbitrary units) of the cell population.

Data set [2] has as its system human TC28a2 chondrocyte cells. Put plainly: DRAQ7 chondrocyte viability assay (flow cytometry). The note with it: 24 h. As for the experimental part:
A novel cell viability assay uses DRAQ7, a marker of apoptosis, necrosis and dead cells. DRAQ7 stains the nuclei in dead and permeabilised cells but not in intact live cells.
To determine the effects of APPA (10 μg/ml) AP (2.3 and 10 μg/ml) and PA (7.7 and 10 μg/ml) on chondrocyte viability, an assay based on DRAQ7™ (Thermo Fisher Scientific) was used. DRAQ7™ is a dye that can be used to show apoptosis, necrosis and dead cells, and the assay includes staining of nuclei in dead and permeabilised cells but not staining of intact live cells.
For the assay, cells were grown in flasks due to higher number of cells required. Following 24 h of different treatments, cells were trypsinised and centrifuged at 1500 rpm for 10 minutes (min). The harvested cells were suspended in 3 µM of the fluorescent dye DRAQ7™ (Thermo Fisher) and incubated in the dark, at room temperature (rt) for 10 min. The samples were run on CytoFLex flow cytometer (Beckman Coulter Inc. Ca, USA). At least 1×10^4 cells per assay were measured. Data were analysed using CyExpert V 2.5 software (Beckman Coulter Inc). […] To establish the position of DRAQ7− and DRAQ7+ gates, one of each negative and positive control was stained with DRAQ7 dye and the other with PBS alone (data not shown).

In data set [3] the test system is human TC28a2 chondrocyte cells. As to the kind of experiment: SA-β-Gal activity by FDG flow cytometry in TC28a2 cells exposed to IL-6 or etoposide. The note with it: Basal = 1.
Method: The immortalized human juvenile chondrocyte cell line T/C28a2 (25), was used in some experiments.
as §1, §2
These conditions were evaluated with and without 10 μg/ml APPA for 24 h. […] At the end of incubation, cultures were washed with PBS, resuspended by trypsinization and analysed immediately using a FACScalibour flow cytometer (Becton Dickinson). Data were acquired and analysed with Cellquest software (Becton Dickinson). Each fluorescein signal was measured on an FL1 detector and β-galactosidase activity was estimated using the median fluorescence intensity (arbitrary units) of the cell population.
The next data set deals with CDKN1A (p21). Put plainly: CDKN1A (p21) relative mRNA expression by RT-PCR. Conditions: primary human chondrocytes. The text has this:
CDKN1 (p21) is a genetic marker for cell senescence that codes for cyclin dependent kinase inhibitor 1A, a regulator of cell cycle progression. The expression of this gene is tightly controlled by the tumor suppressor protein p53. Activated p53 increases the expression of p21 which contributes to senescence. […] Cell-cycle arrest due to an increase in expression of genes that inhibit proliferation, the changes that occur in senescent cells can also result in the increased production of cytokines, growth factors, and matrix metalloproteinase (Loeser R F. Aging and osteoarthritis: the role of chondrocyte senescence and aging changes in the cartilage matrix. Osteoarthritis Cartilage. 2009 August; 17 (8): 971-9). Relative mRNA expression levels of CDKN1 were detected by quantitative real-time (RT)-PCR in presence of positive stimuli +/−10 μg/ml APPA. Data were obtained from eight independent donors. Values are presented as mean±SEM and analyzed by Mann Whitney test (*p≤0.05). RNA extraction was achieved using TRIzol® (Sigma-Aldrich), following the manufacturer's protocol. 0.5 μg of RNA was reversely transcribed into cDNA using Super Script VILO (Thermofisher Scientific, Waltham, Massachusetts, USA) following the manufacturer's instructions. RT-PCR was developed in a LightCycler 480-II Instrument (Roche, Mannheim, Germany) using TaqMan Universal Master Mix (Roche). Analysis of the results was carried out using Qbase+ version 2.5 software (Biogazelle, Ghent, Belgium). Gene expression was calculated relative to the housekeeping gene Glyceraldehyde-3-Phosphate Dehydrogenase (GAPDH). Relative mRNA expression levels of cyclin dependent kinase inhibitor 1A (CDKN1) were detected by quantitative real-time (RT)-PCR in the same manner as above. Data were obtained from six independent donors.

The test system of another data set is BECN-1. As to the kind of experiment: BECN-1 gene expression by RT-PCR. Conditions: primary human chondrocytes; Eto + OSM + PA 7.7 μg/ml (FIG. 7d). As for the experimental part:
RNA extraction was achieved using TRIzol® (Sigma-Aldrich), following the manufacturer's protocol. 0.5 μg of RNA was reversely transcribed into cDNA using Super Script VILO (Thermofisher Scientific, Waltham, Massachusetts, USA) following the manufacturer's instructions. RT-PCR was developed in a LightCycler 480-II Instrument (Roche, Mannheim, Germany) using TaqMan Universal Master Mix (Roche). Analysis of the results was carried out using Qbase+ version 2.5 software (Biogazelle, Ghent, Belgium). Gene expression was calculated relative to the housekeeping gene Glyceraldehyde-3-Phosphate Dehydrogenase (GAPDH). […] BECN-1 is a regulator of autophagy; the encoded protein, Beclin1, is a component of the phosphatidylinositol-3-kinase (PI3K) complex which mediates vesicle-trafficking processes. Autophagy is a self-degradative process that is important for balancing sources of energy at critical times during development and in response to cell stress. Although autophagy is not a type of cell death, it is important for cartilage homeostasis. […]

Regarding `COc1cc(C(C)=O)ccc1O` [AP, 4-hydroxy-3-methoxyacetophenone], the “SA-β-Gal level (Mean ± SEM)” value in data set [1] (Eto + OSM + AP-2.3 μg/ml) worked out at 0.9947; in data set [1] (Eto + OSM + AP-10 μg/ml), 1.01; in data set [3] (Eto-5 μM + AP 2.3 μg/ml) it was 0.9191; in data set [3] (Eto-5 μM + AP 10 μg/ml), 0.8948. Further, the “effect on SA-β-Gal levels, in words” value in data set [1] is given as “no significant effects”. The “percentage of (non-viable) cells positive for DRAQ7” value in data set [2] (human, 10 μg/ml) stood at 5.05%. For the same compound, the figures for the “expression level of CDKN1A (p21) (Mean ± SEM)” value in the data set on CDKN1A (p21) (Eto 20 μM + OSM 10 ng/ml + AP 2.3 μg/ml) and with CDKN1A (p21) (Eto 20 μM + OSM 10 ng/ml + AP 10 μg/ml) were 1.0102 ± 0.25 and 1.617 ± 0.32, respectively. In addition, in the data set on CDKN1A (p21) (Eto + OSM, AP at 2.3 and 10 μg/ml), the “effect on CDKN1A (p21) expression, in words” value is reported as “neither concentration of AP nor PA 7.7 μg/ml had any significant effect”.
Turning to `COc1ccc(C(C)=O)c(O)c1` [PA, 2-hydroxy-4-methoxyacetophenone], the “SA-β-Gal level (Mean ± SEM)” value amounted to 0.9844 in data set [1] (Eto + OSM + PA-7.7 μg/ml) and 0.9622 in data set [1] (Eto + OSM + PA-10 μg/ml). Further, the “effect on SA-β-Gal levels, in words” value in data set [1] is given as “no significant effects”. For the same compound, the “effect on cell viability (DRAQ7)” value in data set [2] (TC28a2, APPA 10, AP 2.3 and 10, PA 7.7 and 10 μg/ml) is “do not affect cell viability”. For the same compound, the “expression level of CDKN1A (p21) (Mean ± SEM)” value in the data set on CDKN1A (p21) (Eto 20 μM + OSM 10 ng/ml + 10 μg/ml (PA 10 μg/ml per text)) was 0.869 ±0.17 and 0.8635 ± 0.17. Further, in the data set with BECN-1, the BECN-1 gene expression entry was “significantly counteracted”.

Values taken from patent US20260272851A1, “FORMULATION COMPRISING APOCYNIN AND PAEONOL” (AKL Research & Development Ltd, priority 2022, published 2026).
